Test results as given in patent US6894063B2, “Substituted urea neuropeptide Y Y5 Receptor antagonists” (Schering Corporation, priority 2000, dated 2005).

Tested on: D-Trp34-NPY stimulated food intake
Assay: Screening for Y5 antagonist activity in vivo: D-Trp34-NPY stimulated food intake in rats
Parameters: species or system Long-Evans or Sprague-Dawley rats
Conditions: rat, oral doses 0.1, 0.3, 1 and 3 mg/kg one hour before icv D-Trp34-NPY; food consumption monitored at 60, 120 and 240 min
Method: Method for Screening Compound 14 of Example 14 for Y5 Antagonist Activity In Vivo
Adult male Long-Evans or Sprague-Dawley rats (200-250 g, Charles River, Mass.) were maintained in individual cages at 22° C. on a 12 hr light/12 hr dark cycle with lights on at 0400. Rats had free access to food (Teklad Lab Rodent Chow, Bartonville, Ill.) and water. All studies were conducted in an AAALAC accredited facility following protocols approved by the Animal Care and Use Committee of the Schering-Plough Research Institute. The procedures were performed in accordance with the principles and guidelines established by the NIH for the care and use of laboratory animals.
Rats were anesthetized by intramuscular injection of a mixture of ketamine and xylazine (100 and 10 mg/kg, respectively). A 22 gauge stainless steel cannula was stereotaxically implanted into the lateral ventricle using the following coordinates: 1 mm posterior to bregma, 1.5 mm lateral to midline, 3.6 mm ventral to dura. After a three week recovery period, all animals were tested for correct cannula placement by intracerebroventricular (icv) infusion of human NPY ([…]). […] Food consumption was monitored at 60, 120 and 240 min after icv infusion of peptides. Differences in food intake between groups were determined by analysis of variance followed by Dunnett's multiple comparison test.

SMILES: CN(C(=O)Nc1ccc(-c2cc(F)cc(F)c2)cc1)C1CCN(c2nccs2)CC1 [Example 14]
- ID50, inhibition of D-Trp34-NPY stimulated food intake: 0.5 mg/kg
